Experimental data published in US10959430B2, “Compositions and methods for repelling coleopterans” (ISCA TECHNOLOGIES, INC., priority 2015, dated 2021).

Experiments:
[1] = test system: CBB (coffee berry borer, Hypothenemus hampei); experiment: Dislodging of CBB from coffee berries in a sealed petri dish; format: in vivo; conditions: both male and female CBBs
From the text: Our testing involved application of approximately 0.2 g of SPLAT Verb in approximately a 6-inch petri dish. (SPLAT Verb is loaded with 10% verbenone by weight.) This area would correspond to 0.0000045ac of land; therefore, our field application rate would be approximately 44 kg of SPLAT Verb (4,400 g of verbenone) per acre. Coffee berries, commonly used to rear CBB, were placed in the petri dish. The 0.2 g of SPLAT Verb was introduced into the sealed petri dish. We then went on to measure the times when CBB dislodged or exited the berry. The number dislodged is a summation of the total dislodged at that point in time. Our data (as shown in Table 3) verifies that CBB exited their preferred host and, after dislodging, maintained high activity levels without re-entering the berries.

[2] = test system: CBB; conditions: dosage and verbenone type not given in the study; cited from earlier work

## CC1=CC(=O)[C@H]2C[C@@H]1C2(C)C [(1S)-(−)-Verbenone]
[1]
  effect of exposure on male and female CBBs in the coffee berry: dislodge from the coffee berry

## CC1=CC(=O)[C@@H]2C[C@H]1C2(C)C [verbenone]
[2]
  response of CBB to path containing verbenone: unattractive
